From the RepoRT retention time repository (doi:10.1016/j.chroma.2019.01.023)

assay: RP, Phenomenex Kinetex C18, 150 × 2.1 mm, 1.7 µm, 30 °C, 0.3 mL/min, estimated dead time 1.1 min; A: water + 0.1% formic acid, pH 3; B: acetonitrile + 0.1% formic acid, pH 3; gradient (min/%B) 0/2 14/100 17/100 17.1/2 25/2; conditions: stereoisomer not certain

| LC retention time [min] | Compound |
| --- | --- |
| 1.33 | CCCC(N)C(=O)O (stereo not given) [NORVALINE] |
| 1.39 | Nc1ccn(C2OC(CO)C(O)C2O)c(=O)n1 (stereo not given) [CYTIDINE] |
| 3.68 | Nc1c([O-])cccc1C(=O)O [3-HYDROXYANTHRANILATE] |
| 2.34 | Nc1ncnc2c1ncn2C1OC(CO)C(O)C1O (stereo not given) [ADENOSINE] |
| 1.4 | Cc1ncc(CO)c(C=O)c1O [PYRIDOXAL] |
| 1.92 | c1ncc2[nH]cnc2n1 [PURINE] |
| 4.81 | COc1cc(CC(=O)O)ccc1O [HOMOVANILLATE] |
| 1.73 | Nc1ncnc2c1ncn2C1OC(CO)C2OP(=O)(O)OC21 (stereo not given) [ADENOSINE 2',3'-CYCLIC PHOSPHATE] |
| 2.14 | NC(=O)C1CCCN1C(=O)C(Cc1cnc[nH]1)NC(=O)C1CCC(=O)N1 (stereo not given) [THYROTROPIN RELEASING HORMONE] |
| 3.31 | O=C(O)Cc1cc(O)ccc1O [HOMOGENTISATE] |

Continued, molecule first:

| Compound | LC retention time [min] |
| --- | --- |
| O=C(O)c1ccc([O-])cc1 [4-HYDROXYBENZOATE] | 4.51 |
| CC(CCC(=O)O)C(=O)O (stereo not given) [2-METHYLGLUTARATE] | 3.85 |
| CC(CC(=O)O)CC(=O)O [METHYGLUTARATE] | 3.85 |
| O=C(O)CCCCCCC(=O)O [SUBERATE] | 5.34 |
| O=C([O-])c1cccnc1 [NICOTINATE] | 1.41 |
| NC(CCOC(=O)CCC(=O)O)C(=O)O (stereo not given) [O-SUCCINYL-HOMOSERINE] | 1.45 |
| CSCCC(N)C(=O)O (stereo not given) [METHIONINE] | 1.43 |
| O=C([O-])CCCCC(=O)[O-] [ADIPATE] | 3.73 |
| CSCCC(O)C(=O)O (stereo not given) [2-HYDROXY-4-(METHYLTHIO)BUTANOATE] | 3.82 |
| O=c1cccc(O)[nH]1 [2,6-DIHYDROXYPYRIDINE] | 1.95 |
| CCCCC(N)C(=O)O (stereo not given) [NORLEUCINE] | 2.19 |
| O=C([O-])CCc1ccccc1O [3-(2-HYDROXYPHENYL)PROPANOATE] | 6.02 |
| O=c1[nH]c(=O)c2[nH]c(=O)[nH]c2[nH]1 [URATE] | 1.52 |
| CCCCCCCCCC(=O)OCC(COP(=O)([O-])OCC[N+](C)(C)C)OC(=O)CCCCCCCCC (stereo not given) [DIDECANOYL-GLYCEROPHOSPHOCHOLINE] | 12.8 |
| CC(=O)NC(CC(=O)O)C(=O)O (stereo not given) [N-ACETYLASPARTATE] | 1.45 |
| CC(C)CC(N)C(=O)O (stereo not given) [LEUCINE] | 2.05 |
| O=c1cc[nH]c(=O)[nH]1 [URACIL] | 1.41 |
| O=C(O)C=Cc1cnc[nH]1 [UROCANATE] | 1.43 |
| O=C(O)CCCCCCCCCCCO [OMEGA-HYDROXYDODECANOATE] | 8.62 |
| O=C(O)CCCCCCCCCO [10-HYDROXYDECANOATE] | 7.13 |
| CC(O)(CCO)CC(=O)[O-] (stereo not given) [MEVALONATE] | 1.99 |

assay: HILIC, Waters ACQUITY UPLC BEH Amide, 150 × 2.1 mm, 1.7 µm, 40 °C, 0.5 mL/min, estimated dead time 0.66 min; A: 5% water + 95% acetonitrile; B: 70% water + 30% acetonitrile + 10 mM ammonium formate, pH 6.5; gradient (min/%B) 0/0 2/0 20/70 23/70 24/0 31/0; conditions: stereoisomer not certain

| LC retention time [min] | Compound |
| --- | --- |
| 4.43 | Nc1nc2nccnc2c(=O)[nH]1 [PTERIN] |
| 1.02 | O=CCc1c[nH]c2ccccc12 [INDOLEACETALDEHYDE] |
| 0.87 | Nc1ccccc1O [2-AMINOPHENOL] |
| 8.23 | O=C(O)c1ccc2ccccc2n1 [2-QUINOLINECARBOXYLATE] |
| 1.32 | Cn1cnc2c1c(=O)[nH]c(=O)n2C [THEOBROMINE] |
| 1.01 | COc1cc(C(O)CO)ccc1O (stereo not given) [4-HYDROXY-3-METHOXYPHENYLGLYCOL] |
| 1.84 | Nc1cc(C(=O)O)ccc1[O-] [3-AMINO-4-HYDROXYBENZOATE] |
| 1.11 | Nc1ccc(C(=O)[O-])cc1 [4-AMINOBENZOATE] |
| 8.68 | CCCC(N)C(=O)O (stereo not given) [NORVALINE] |
| 8.56 | C[Se]CCC(N)C(=O)O (stereo not given) [SELENOMETHIONINE] |
| 6.3 | Nc1ccn(C2OC(CO)C(O)C2O)c(=O)n1 (stereo not given) [CYTIDINE] |
| 0.92 | Cc1cc2nc[nH]c2cc1C [5,6 DIMETHYLBENZIMIDAZOLE] |
| 1.39 | Nc1c([O-])cccc1C(=O)O [3-HYDROXYANTHRANILATE] |
| 3.85 | Nc1ncnc2c1ncn2C1OC(CO)C(O)C1O (stereo not given) [ADENOSINE] |
| 1.81 | Cc1ncc(CO)c(C=O)c1O [PYRIDOXAL] |
| 1.89 | c1ncc2[nH]cnc2n1 [PURINE] |
| 1.59 | COc1cc(CC(=O)O)ccc1O [HOMOVANILLATE] |
| 1.03 | Cn1c(=O)c2c(ncn2C)n(C)c1=O [CAFFEINE] |
| 6.69 | Nc1ncnc2c1ncn2C1OC(CO)C2OP(=O)(O)OC21 (stereo not given) [ADENOSINE 2',3'-CYCLIC PHOSPHATE] |
| 8.34 | NC(=O)C1CCCN1C(=O)C(Cc1cnc[nH]1)NC(=O)C1CCC(=O)N1 (stereo not given) [THYROTROPIN RELEASING HORMONE] |
| 1.27 | O=C(O)Cc1cc(O)ccc1O [HOMOGENTISATE] |

More lines, now with the values behind:

| Compound | LC retention time [min] |
| --- | --- |
| O=C(O)C(O)Cc1ccc(O)cc1 (stereo not given) [HYDROXYPHENYLLACTATE] | 1.4 |
| CC(=O)NCC(=O)O [N-ACETYLGLYCINE] | 5.48 |
| O=Cc1ccc(O)cc1 [4-HYDROXYBENZALDEHYDE] | 2.67 |
| NC(=O)NCCC(=O)O [UREIDOPROPIONATE] | 5.27 |
| CC(CCC(=O)O)C(=O)O (stereo not given) [2-METHYLGLUTARATE] | 5.2 |
| CC(CC(=O)O)CC(=O)O [METHYGLUTARATE] | 1.27 |
| O=C(O)CCCCCCC(=O)O [SUBERATE] | 4.7 |
| O=C([O-])c1cccnc1 [NICOTINATE] | 3.5 |
| NC(CCOC(=O)CCC(=O)O)C(=O)O (stereo not given) [O-SUCCINYL-HOMOSERINE] | 11.8 |
| CC(CCC(=O)O)C1CCC2C3CCC4CC(O)CCC4(C)C3CC(O)C12C (stereo not given) [DEOXYCHOLATE] | 1.01 |
| NC(=O)CCCCC1CCSS1 (stereo not given) [LIPOAMIDE] | 0.88 |
| CSCCC(N)C(=O)O (stereo not given) [METHIONINE] | 8.53 |
| O=C([O-])CCCCC(=O)[O-] [ADIPATE] | 5.26 |
| CSCCC(O)C(=O)O (stereo not given) [2-HYDROXY-4-(METHYLTHIO)BUTANOATE] | 1.29 |
| O=c1cccc(O)[nH]1 [2,6-DIHYDROXYPYRIDINE] | 4.81 |
| CC(CCC(=O)NCC(=O)O)C1CCC2C3C(O)CC4CC(O)CCC4(C)C3CC(O)C12C (stereo not given) [GLYCOCHOLATE] | 6.3 |
| CCCCC(N)C(=O)O (stereo not given) [NORLEUCINE] | 7.75 |
| O=C([O-])CCc1ccccc1O [3-(2-HYDROXYPHENYL)PROPANOATE] | 1.02 |
| O=c1[nH]c(=O)c2[nH]c(=O)[nH]c2[nH]1 [URATE] | 2.25 |
| CCCCCCCCCC(=O)OCC(COP(=O)([O-])OCC[N+](C)(C)C)OC(=O)CCCCCCCCC (stereo not given) [DIDECANOYL-GLYCEROPHOSPHOCHOLINE] | 5.15 |
| NCCc1c[nH]c2ccccc12 [TRYPTAMINE] | 7.11 |
| CC(=O)NC(CC(=O)O)C(=O)O (stereo not given) [N-ACETYLASPARTATE] | 3.48 |
| CC(C)CC(N)C(=O)O (stereo not given) [LEUCINE] | 7.96 |
| O=c1cc[nH]c(=O)[nH]1 [URACIL] | 1.83 |
| O=C(O)C=Cc1cnc[nH]1 [UROCANATE] | 4.08 |
| O=C(O)CCCCCCCCCCCO [OMEGA-HYDROXYDODECANOATE] | 0.84 |
| O=C(O)CCCCCCCCCO [10-HYDROXYDECANOATE] | 1 |
| CC(O)(CCO)CC(=O)[O-] (stereo not given) [MEVALONATE] | 3.94 |
